In the NIST ThermoML archive (doi:10.1016/j.jct.2012.06.012):

Experiment: xn = mol fraction of the nth substance listed
Conditions: Liquid, Vibrating tube method

CCCCCCCCCC [decane] + CCO
Conditions | mass density [kg/m3]
313.07 K, 1000 kPa, x2 = 0.9014 | 753.75
313.07 K, 2000 kPa, x2 = 0.9014 | 754.71
313.07 K, 3000 kPa, x2 = 0.9014 | 755.67
313.07 K, 4000 kPa, x2 = 0.9014 | 756.61
313.07 K, 5000 kPa, x2 = 0.9014 | 757.53
313.07 K, 6000 kPa, x2 = 0.9014 | 758.44
313.07 K, 7000 kPa, x2 = 0.9014 | 759.33
313.07 K, 8000 kPa, x2 = 0.9014 | 760.24
313.07 K, 9000 kPa, x2 = 0.9014 | 761.14
313.07 K, 10000 kPa, x2 = 0.9014 | 762.04
313.07 K, 11000 kPa, x2 = 0.9014 | 762.94
313.07 K, 12000 kPa, x2 = 0.9014 | 763.84
313.07 K, 13000 kPa, x2 = 0.9014 | 764.72
313.07 K, 14000 kPa, x2 = 0.9014 | 765.58
313.07 K, 15000 kPa, x2 = 0.9014 | 766.45
313.07 K, 16000 kPa, x2 = 0.9014 | 767.29
313.07 K, 17000 kPa, x2 = 0.9014 | 768.13
313.07 K, 18000 kPa, x2 = 0.9014 | 768.94
313.07 K, 19000 kPa, x2 = 0.9014 | 769.74
313.07 K, 20000 kPa, x2 = 0.9014 | 770.52
313.08 K, 1000 kPa, x2 = 0.1011 | 715.15
313.08 K, 1000 kPa, x2 = 0.4963 | 724.28
313.08 K, 1000 kPa, x2 = 0.7526 | 738.33
313.08 K, 2000 kPa, x2 = 0.1011 | 716.05
313.08 K, 2000 kPa, x2 = 0.4963 | 725.2
313.08 K, 2000 kPa, x2 = 0.7526 | 739.26
313.08 K, 3000 kPa, x2 = 0.1011 | 716.93
313.08 K, 3000 kPa, x2 = 0.4963 | 726.11
313.08 K, 3000 kPa, x2 = 0.7526 | 740.19
313.08 K, 4000 kPa, x2 = 0.1011 | 717.8
313.08 K, 4000 kPa, x2 = 0.4963 | 727
313.08 K, 4000 kPa, x2 = 0.7526 | 741.1
313.08 K, 5000 kPa, x2 = 0.1011 | 718.66
313.08 K, 5000 kPa, x2 = 0.4963 | 727.87
313.08 K, 5000 kPa, x2 = 0.7526 | 741.99
313.08 K, 6000 kPa, x2 = 0.1011 | 719.51
313.08 K, 6000 kPa, x2 = 0.4963 | 728.73
313.08 K, 6000 kPa, x2 = 0.7526 | 742.87
313.08 K, 7000 kPa, x2 = 0.1011 | 720.34
313.08 K, 7000 kPa, x2 = 0.4963 | 729.58
313.08 K, 7000 kPa, x2 = 0.7526 | 743.75
313.08 K, 8000 kPa, x2 = 0.1011 | 721.16
313.08 K, 8000 kPa, x2 = 0.4963 | 730.44
313.08 K, 8000 kPa, x2 = 0.7526 | 744.64
313.08 K, 9000 kPa, x2 = 0.1011 | 721.98
313.08 K, 9000 kPa, x2 = 0.4963 | 731.3
313.08 K, 9000 kPa, x2 = 0.7526 | 745.53
313.08 K, 10000 kPa, x2 = 0.1011 | 722.8
313.08 K, 10000 kPa, x2 = 0.4963 | 732.16
313.08 K, 10000 kPa, x2 = 0.7526 | 746.41
313.08 K, 11000 kPa, x2 = 0.1011 | 723.63
313.08 K, 11000 kPa, x2 = 0.4963 | 733
313.08 K, 11000 kPa, x2 = 0.7526 | 747.29
313.08 K, 12000 kPa, x2 = 0.1011 | 724.45
313.08 K, 12000 kPa, x2 = 0.4963 | 733.86
313.08 K, 12000 kPa, x2 = 0.7526 | 748.17
313.08 K, 13000 kPa, x2 = 0.1011 | 725.26
313.08 K, 13000 kPa, x2 = 0.4963 | 734.7
313.08 K, 13000 kPa, x2 = 0.7526 | 749.03
313.08 K, 14000 kPa, x2 = 0.1011 | 726.06
313.08 K, 14000 kPa, x2 = 0.4963 | 735.54
313.08 K, 14000 kPa, x2 = 0.7526 | 749.89
313.08 K, 15000 kPa, x2 = 0.1011 | 726.85
313.08 K, 15000 kPa, x2 = 0.4963 | 736.35
313.08 K, 15000 kPa, x2 = 0.7526 | 750.73
313.08 K, 16000 kPa, x2 = 0.1011 | 727.63
313.08 K, 16000 kPa, x2 = 0.4963 | 737.16
313.08 K, 16000 kPa, x2 = 0.7526 | 751.56
313.08 K, 17000 kPa, x2 = 0.1011 | 728.39
313.08 K, 17000 kPa, x2 = 0.4963 | 737.95
313.08 K, 17000 kPa, x2 = 0.7526 | 752.38
313.08 K, 18000 kPa, x2 = 0.1011 | 729.13
313.08 K, 18000 kPa, x2 = 0.4963 | 738.72
313.08 K, 18000 kPa, x2 = 0.7526 | 753.17
313.08 K, 19000 kPa, x2 = 0.1011 | 729.85
313.08 K, 19000 kPa, x2 = 0.4963 | 739.47
313.08 K, 19000 kPa, x2 = 0.7526 | 753.95
313.08 K, 20000 kPa, x2 = 0.1011 | 730.55
313.08 K, 20000 kPa, x2 = 0.4963 | 740.21
313.08 K, 20000 kPa, x2 = 0.7526 | 754.7
313.09 K, 1000 kPa, x2 = 0.0937 | 715.17
313.09 K, 2000 kPa, x2 = 0.0937 | 716.07
313.09 K, 3000 kPa, x2 = 0.0937 | 716.95
313.09 K, 4000 kPa, x2 = 0.0937 | 717.82
313.09 K, 5000 kPa, x2 = 0.0937 | 718.68
313.09 K, 6000 kPa, x2 = 0.0937 | 719.53
313.09 K, 7000 kPa, x2 = 0.0937 | 720.36
313.09 K, 8000 kPa, x2 = 0.0937 | 721.18
313.09 K, 9000 kPa, x2 = 0.0937 | 721.99
313.09 K, 10000 kPa, x2 = 0.0937 | 722.79
